Tests used:
Format in all cases: physicochemical
[1] = Stability in concentrated NH4OH at 60° C.; conditions: pure dye isomer 2, concentrated ammonia hydroxide, sealed vials, first order fit
Description: (§1) See FIGS. 1 and 2 for the structures of the dyes referred to in the table. All data are reported for pure dye isomer 2. All emission spectra were recorded in 1×TBE buffer at pH 8.4 in dye solutions having an absorbance of 0.05 at λmax Abs (ca. 1×10^-6 M) at room temperature. Photodecomposition rate was determined for equal volumes of the dyes at initially 1 absorption unit at λmax Abs and run in pairs at equal volumes under equal high intensity white light irradiation at 35° C. in 1×TBE buffer pH 8.4. […] (λmax Abs=0.05).

[2] = Relative brightness at λmax Em with 514 nm excitation; conditions: pure dye isomer 2, approximately equal concentrations (λmax Abs=0.05)
Description: as §1

[3] = Photodecomposition under high intensity white light; conditions: pure dye isomer 2, 35° C., 1×TBE buffer pH 8.4, from t1/2 for loss of dye
Description: as §1

[4] = Emission spectra of pure dyes (Table II); conditions: pure dye isomer 2, room temperature; for λmax Em: 1×TBE buffer pH 8.4, absorbance 0.05 at λmax Abs; for Width at Half Height: emission spectrum in 1×TBE buffer pH 8.4

Relative Photostability [3]	Substance	Stability in NH4OH - t1/2 [1] [h]	Relative Brightness [2]	λmax Em [4] [nm]	Width at Half Height [4] [nm]
17	6-carboxy-4,7,2',4',5',7',-hexachlorofluorescein	11	2.4	550	32
–	TAMRA	1.3	0.9	577	39
